Experimental findings from US8974768B2, “Azo compounds reducing formation and toxicity of amyloid beta aggregation intermediates” (Max-Delbrueck-Centrum fuer Molekulare Medizin, priority 2010, dated 2015) are described below.

Structures are written as SMILES. Where a name gives a salt, the structure may show the parent alone. Read-outs that look alike come from different tables or passages of the source.

A short description of data set [1]: in vitro. Particulars: human.
Data set [2] has as its target Aβ1-42 peptide (Homo sapiens, UniProt P05067). In words: Thioflavin T (Thio T)-assay of Aβ aggregation. Type of data set: biochemical.
A short description of data set [3]: Detection of compounds in brain after in vivo administration. Particulars: for Detection in brain after i.v. administration: B6C3 mouse, 5 mg/kg body weight i.v. once, brain samples; for Detectability after oral administration: mouse brain, oral gavage or feeding pellets; for Detection in brain after oral administration, feeding pellet preparation / Detection in brain after oral administration, oral gavage administration: mouse; for Detection in brain after oral administration, feeding pellet preparation: brain samples after one week feeding; for Detection in brain after oral administration, oral gavage administration: five to seven doses over two or three days, sampling 30 min. after last application.

For data set [4], the system named is Tg2576 mice. Kind of data set: Contextual fear conditioning in Tg2576 mice. Format: in vivo, mouse. Particulars: 9-month-old Tg2576 mice, feeding pellets for 12 weeks. The protocol: Groups of Tg2576 mice overexpressing the 695-amino acid isoform of human amyloid precursor protein containing a Lys670→Asn, Met671→Leu mutation (Hsiao, K. Science 1996) and wildtype control mice (13-21 per phenotype) were conditioned on day 1 by placing a subject mouse in a contextual fear conditioning chamber (Med Associates, […], Vt.). Exploration was allowed for 2 min, and an auditory cue was presented for 15 s accompanied by an electrical foot shock during the last 2 s. This procedure was repeated and mice were removed from the chamber after 30 s. Twenty hours later, mice were returned to the chamber in which conditioning occured, and their freezing behaviour (fear) was monitored. Freezing was defined as the lack of all movements, except those required for breathing (Comery, T. A., et al. Journal of Neuroscience, 2005). Data were analysed by two-way ANOVA in the S programming environment, followed by Fischer's least significant difference (LSD) pairwise comparison of group means at the p<0.05 significance level.
The contextual fear conditioning paradigm is a form of Pavlovian learning in which an association is made between stimuli and their aversive consequences. Studies of brain function implicate the amygdala in regulating fear, and the hippocampus in regulating the learning of the context in which a fearful event occurred.
The brain circuitry in wild type mice is intact and they are better able to associate an aversive foot shock with the context or environment in which the shock took place. They therefore show more freezing. Transgenic Alzheimer mice have compromised brain circuitry due to the toxic effects of amyloid-beta protein. They are therefore less able to associate an aversive shock with a context and show less freezing.
A substance that reverses the toxic effects of amyloid-beta in Alzheimer's mice will help in reconsolidating the impaired brain circuitry so that these mice begin to show more fear (freezing behavior) after treatment. This paradigm is therefore a robust method for showing the effect of drug candidate molecules in Alzheimer mice.

Details of data set [5]: Detection in brain after i.v. administration: key to the marks not given beside the values. Particulars: mouse, in vivo.
[6] abbreviates: 30 μM Aβ1-42 peptide, 48 h at 37° C., vs DMSO control, read-out: ThioT: IC50.

Chain of Aβ1-42 peptide (P05067 672-713): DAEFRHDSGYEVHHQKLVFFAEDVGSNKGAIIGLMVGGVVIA

With `Oc1ccc(N=Nc2ccccc2)c(O)c1` [Compound 15, 4-(phenyldiazenyl)benzene-1,3-diol], the half-maximal inhibitory concentration (IC50) at 48 h in data set [1] was approximately 31 µM. In addition, the IC50 in data set [2] (setting [6]) was determined as 2.2 µM.
With `CCNc1ccc2ccccc2c1N=Nc1ccc(N=Nc2ccccc2)cc1` [Compound 7, N-ethyl-1-((4-(-phenyldiazenyl)phenyl)diazenyl)naphthalen-2-amine], the “Detection in brain after i.v. administration” value in data set [3] was “++”. In addition, the IC50 at 48 h in data set [1] is more than 3 µM. The IC50 in data set [2] (setting [6]) was determined as 3.1 µM.
In the case of `O=[N+]([O-])c1ccc(N=Nc2c(O)ccc3ccccc23)cc1` [Compound 31, 1-((4-nitrophenyl)diazenyl)naphthalen-2-ol], in data set [2] (setting [6]), the IC50 was found to be 87.1 µM.
The compound `c1ccc(N=Nc2ccccc2)cc1` [compound 33, 1,2-diphenyldiazene, reference compound] came in with an IC50 in data set [2] of 1090 µM.
Take `Nc1ccc(N=Nc2ccc([N+](=O)[O-])cc2)cc1` [Compound 3, 4-((4-nitrophenyl)diazenyl)aniline]: the IC50 at 48 h in data set [1] is more than 100 µM. In data set [2] (setting [6]), the 50% inhibitory concentration (IC50) was found to be 3.3 µM.
`Oc1ccc2ccccc2c1N=Nc1ccccn1` [Compound 5, 1-(pyridin-2-yldiazenyl)naphthalen-2-ol]: in data set [3], the “Detection in brain after i.v. administration” value is reported as “++”. Besides, in data set [1], the IC50 at 48 h was more than 10 µM. Moreover, the half-maximal inhibitory concentration (IC50) in data set [2] (setting [6]) amounted to 12.2 µM.
Turning to `c1ccc(N=Nc2ccc(Nc3ccccc3)cc2)cc1` [Compound 1, N-phenyl-4-(phenyldiazenyl)aniline], in data set [3], the “Detection in brain after i.v. administration” value is given as “++”; the “Detectability after oral administration” value is “excellent”; the “Detection in brain after oral administration, feeding pellet preparation” value (shortened to “Detection in brain … feeding pellet preparation”) is “++^a), b)”; the “Detection in brain after oral administration, oral gavage administration” value (shortened to “Detection in brain … oral gavage administration”) is listed as “++^a), b)”. Further, the “Contextual memory (freezing behaviour)” value in data set [4] is on record as “improvement”. Besides, the IC50 at 48 h in data set [1] was more than 30 µM. Moreover, the IC50 in data set [2] (setting [6]) stood at 4.5 µM.
Regarding `Nc1ccc(N=Nc2ccc(Nc3ccccc3)cc2)cc1` [Compound 24, 4-((4-aminophenyl)diazenyl)-N-phenylaniline], the IC50 at 48 h in data set [1] was more than 30 µM. Also, in data set [2] (setting [6]), the IC50 came out at 4.8 µM.
`CN(C)CCCN1c2ccccc2Sc2ccc(Cl)cc21` [Chlorpromazine, Chlorpromazine hydrochloride, reference compound] yielded an IC50 at 48 h in data set [1] of 14.1 µM.
`Oc1ccc2ccccc2c1N=Nc1ccccc1` [Compound 25, 1-(phenyldiazenyl)naphthalen-2-ol]: in data set [2] (setting [6]), the IC50 was determined as 43.9 µM.
As for `O=S(=O)(O)c1ccc(N=Nc2ccc(O)cc2O)cc1` [Compound 27, sodium 4-((2,4-dihydroxyphenyl)diazenyl)benzenesulfonate], the IC50 in data set [2] (setting [6]) was 61.5 µM.
For `CN(C)c1ccc(N=Nc2ccc(N=C=S)cc2)cc1` [Compound 10, 4-((4-isothiocyanatophenyl)diazenyl)-N,N-dimethylaniline], the “Detection in brain after i.v. administration” value in data set [5] (iv, 5 mg/kg) is on record as “++”. In data set [5] (po), the “Detectability after oral administration” value was “excellent”; the “Detection in brain … feeding pellet preparation” value is “++^a), b)”; the “Detection in brain … oral gavage administration” value is recorded as “++^a), b)”. In data set [1], this compound had an IC50 of more than 100 µM. This compound also returned a half-maximal inhibitory concentration (IC50) in data set [2] of 0.4 µM.
On to `Oc1ccc(N=Nc2cc(Cl)ccc2Cl)c(O)c1` [Compound 20, 4-((2,5-dichlorophenyl)diazenyl)benzene-1,3-diol], for which, in data set [3], the “Detection in brain after i.v. administration” value is listed as “++”. Further, in data set [1], the IC50 at 48 h was approximately 3 µM. Moreover, the IC50 in data set [2] (setting [6]) worked out at 1.3 µM.
On to `Oc1ccc(N=Nc2ccccn2)c(O)c1` [Compound 12, 4-(pyridin-2-yldiazenyl)benzene-1,3-diol], for which the “Detection in brain after i.v. administration” value in data set [3] is on record as “−”. For the same compound, the IC50 at 48 h in data set [1] is more than 1 µM. Moreover, the half-inhibitory concentration (IC50) in data set [2] (setting [6]) stood at 3 µM.
Turning to `O=[N+]([O-])c1ccc(N=NNc2ccc(N=Nc3ccccc3)cc2)cc1` [Compound 23, 1-(4-nitrophenyl)-3-(4-(phenyldiazenyl)phenyl)triaz-1-ene], the IC50 at 48 h in data set [1] is more than 30 µM. Moreover, the IC50 in data set [2] (setting [6]) came to 1.1 µM.
Regarding `O=[N+]([O-])c1ccc(N=Nc2ccc(O)cc2O)cc1` [Compound 13, 4-((4-nitrophenyl)diazenyl)benzene-1,3-diol], in data set [3], the “Detection in brain after i.v. administration” value is listed as “++”; the “Detectability after oral administration” value is listed as “excellent”; the “Detection in brain … feeding pellet preparation” value is reported as “++^a), b)”; the “Detection in brain … oral gavage administration” value is given as “++^a), b)”. The compound also came in with an IC50 in data set [1] of approximately 2 µM. Moreover, in data set [2] (setting [6]), the half-maximal inhibitory concentration (IC50) is 1.1 µM.
As for `Cc1cc(N=Nc2nccs2)c(O)cc1O` [Compound 18, 4-methyl-6-(thiazol-2-yldiazenyl)benzene-1,3-diol], in data set [3], the “Detection in brain after i.v. administration” value is “++”; the “Detectability after oral administration” value is given as “excellent”; the “Detection in brain … oral gavage administration” value was “++^b)/n.d.^b)”. In addition, the IC50 at 48 h in data set [1] was approximately 13 µM. Also, the IC50 in data set [2] (setting [6]) came to 2.4 µM.
Take `O=S(=O)(O)c1ccc(O)c(N=Nc2ccc(O)cc2O)c1` [Compound 29, sodium 3-((2,4-dihydroxyphenyl)diazenyl)-4-hydroxybenzenesulfonate]: in data set [2] (setting [6]), the half-maximal inhibitory concentration (IC50) was 19.8 µM.
Still for that read-out and setting: then `CCOc1ccc(N=Nc2ccc(C)cc2)cc1C` [compound 34, 1-(4-ethoxy-3-methylphenyl)-2-p-tolyldiazene, reference compound], with 105 µM.
For `Oc1ccc(N=Nc2ncn[nH]2)c(O)c1` [Compound 17, 4-((1H-1,2,4-triazol-5-yl)diazenyl)benzene-1,3-diol], the IC50 at 48 h in data set [1] is more than 100 µM. In addition, in data set [2] (setting [6]), the IC50 is 8 µM.
Consider `O=C(O)c1ccccc1N=Nc1ccc(O)cc1` [B, 2-((4-hydroxyphenyl)diazenyl)Benzoic acid, reference compound], for which, in data set [2] (setting [6]), the IC50 worked out at 736 µM.
Consider `Nc1ccc(N=Nc2cccc(N=Nc3ccc(N)cc3N)c2)c(N)c1` [Compound 6, 4,4′-1,3-phenylenebis(diazene-2,1-diyl)dibenzene-1,3-diamine], for which the “Detection in brain after i.v. administration” value in data set [3] is recorded as “++”. Also, in data set [1], the IC50 at 48 h was approximately 11 µM. For the same compound, the IC50 in data set [2] (setting [6]) is 0.9 µM.
On to `O=C(O)c1cc(N=Nc2ccc(-c3ccc(N=Nc4ccc(O)c(C(=O)O)c4)cc3)cc2)ccc1O` [C, (5-5′-biphenyl-4,4′-diylbis(diazene-2,1-diyl)bis(2-hydroxybenzoic acid)), reference compound], for which the IC50 in data set [2] (setting [6]) came out at 0.5 µM.
Consider `Cc1cc(O)cc(O)c1N=Nc1nccs1` [Compound 22, 5-methyl-4-(thiazol-2-yldiazenyl)benzene-1,3-diol], for which, in data set [3], the “Detection in brain after i.v. administration” value was “−”. In data set [1], this compound registered an IC50 at 48 h of approximately 101 µM. For the same compound, in data set [2] (setting [6]), the IC50 stood at 2.4 µM.
As for `Cc1cccc(N=Nc2cc(C=O)c(O)cc2O)c1` [Compound 16, 2,4-dihydroxy-5-(m-tolyldiazenyl)benzaldehyde], the IC50 at 48 h in data set [1] was more than 30 µM. For the same compound, the IC50 in data set [2] (setting [6]) stood at 3.3 µM.
With `Cc1cc(O)cc(O)c1N=Nc1ccc([N+](=O)[O-])cc1` [Compound 19, 5-methyl-4-((4-nitrophenyl)diazenyl)benzene-1,3-diol], the “Detection in brain after i.v. administration” value in data set [3] was “++”. The same compound yielded an IC50 at 48 h in data set [1] of approximately 41 µM. Further, the IC50 in data set [2] (setting [6]) came to 0.9 µM.
Consider `COc1ccc(N=Nc2nccs2)c(O)c1` [Compound 30, 5-methoxy-2-(thiazol-2-yldiazenyl)phenol], for which the IC50 in data set [2] (setting [6]) amounted to 27.4 µM.
With `CN(C)c1ccc(N=Nc2ccccc2)cc1` [Compound 21, N,N-dimethyl-4-(phenyldiazenyl)aniline], the IC50 in data set [1] is more than 100 µM; in data set [2], 16.8 µM.
For the compound `Oc1ccc(N=Nc2nccs2)c(O)c1` [Compound 14, 4-(thiazol-2-yldiazenyl)benzene-1,3-diol], the “Detection in brain after i.v. administration” value in data set [3] is “−”. In addition, the half-inhibitory concentration (IC50) at 48 h in data set [1] is more than 3 µM. In data set [2] (setting [6]), the IC50 was found to be 4.8 µM.
For the compound `Cc1cc(N=Nc2ccccc2C)ccc1N` [Compound 26, 2-methyl-4-(o-tolyldiazenyl)aniline], the IC50 in data set [2] (setting [6]) came to 31.8 µM.
The same measure, in the same setting: the value for `O=S(=O)(O)c1cc(O)c2c(N=Nc3ccc(O)cc3O)cc(S(=O)(=O)O)cc2c1` [Compound 28, 4-((2,4-dihydroxyphenyl)diazenyl)-5-hydroxynaphthalene-2,7-disulfonic acid] was 19.2 µM.
For `O=S(=O)(O)c1cccc(N=Nc2ccc(Nc3ccccc3)cc2)c1` [Compound 11], the half-maximal inhibitory concentration (IC50) at 48 h in data set [1] is more than 100 µM. Further, the IC50 in data set [2] (setting [6]) was determined as 9.5 µM.
As to `O=C(O)c1cc(N=Nc2ccccc2)ccc1O` [A, 2-hydroxy-5-(phenyldiazenyl)benzoic acid, reference compound], in data set [2] (setting [6]), the IC50 stood at 57.4 µM.
On to `Oc1ccc(N=Nc2ccccc2)cc1` [Compound 4, 4-(phenyldiazenyl)phenol], for which the concentration for half-maximal inhibition (IC50) at 48 h in data set [1] was approximately 90 µM. The 50% inhibitory concentration (IC50) in data set [2] (setting [6]) stood at 13.2 µM.
